{
  "source": "patent US6689567B1",
  "about": "“Method for assaying the function of FlaA1 and WbpM” (priority 1999, dated 2004)",
  "key": {"FlaA1 [1]": {"target": "T1, FlaA1 (Helicobacter pylori, UniProt O25511)", "T1 construct": "hexahistidine tag (N); made in house; host or cells: E. coli BL21(DE3)pLysS (pET23 derivative)", "T1 sequence (O25511 whole entry)": "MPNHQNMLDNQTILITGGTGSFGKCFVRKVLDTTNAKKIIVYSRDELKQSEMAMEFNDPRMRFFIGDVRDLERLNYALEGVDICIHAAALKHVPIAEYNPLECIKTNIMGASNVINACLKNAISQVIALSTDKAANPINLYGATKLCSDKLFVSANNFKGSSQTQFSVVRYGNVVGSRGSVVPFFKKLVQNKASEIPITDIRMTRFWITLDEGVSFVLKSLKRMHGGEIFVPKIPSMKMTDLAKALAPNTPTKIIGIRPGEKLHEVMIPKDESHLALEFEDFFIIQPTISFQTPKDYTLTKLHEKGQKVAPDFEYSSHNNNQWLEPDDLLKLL", "test": "Substrate specificity of FlaA1 (catalysis with related sugar-nucleotides)", "type": "biochemical"}, "C4 epimerase WbpP": {"target": "C4 epimerase WbpP (Pseudomonas aeruginosa, UniProt Q8KN66)", "sequence (Q8KN66 whole entry)": "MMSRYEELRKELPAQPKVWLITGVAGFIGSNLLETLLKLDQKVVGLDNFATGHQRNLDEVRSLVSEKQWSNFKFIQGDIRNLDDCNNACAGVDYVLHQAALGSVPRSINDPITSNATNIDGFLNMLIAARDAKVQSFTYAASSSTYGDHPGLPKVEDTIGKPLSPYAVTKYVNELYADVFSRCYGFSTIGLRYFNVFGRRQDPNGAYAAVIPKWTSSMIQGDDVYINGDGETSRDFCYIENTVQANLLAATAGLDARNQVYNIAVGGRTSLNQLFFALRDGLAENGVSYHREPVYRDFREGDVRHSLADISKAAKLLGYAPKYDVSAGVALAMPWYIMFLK", "conditions": "Creuzenet et al. 2000; cited from earlier work"}, "FlaA1 [2]": {"target": "T1, FlaA1", "test": "Capillary electrophoresis analysis of reaction products and kinetic parameters of FlaA1", "type": "biochemical", "conditions": "for reaction products identified by capillary electrophoresis: sugar-nucleotide used as substrate of FlaA1", "protocol": "The same reactions as above were prepared for capillary analysis using varying amounts of enzyme (440 or 54 ng) and 1 mM NAD^+ or not. The reaction mix was incubated for different reaction times. The specific conditions are indicated above. After incubation at 37° C. for the required amount of time, the reactions were quenched by boiling the sample for 6 min. Time course studies were performed with final sugar-nucleotide concentrations of 0.1 and 1.5 mM without NAD^+. Samples were quenched every 15 minutes for 2 h. […] Reactions were also performed using varying buffers such as 20 mM sodium phosphate or bis-tris-propane at pH 7, or 20 mM sodium acetate pH 6.5 and processed for CE analysis as described above.\nCapillary electrophoresis (CE) analysis were performed using a P/ACE 5000 system (Beckman, Fullerton, Calif.) with UV detection as described before (Creuzenet et al. 2000). Briefly summarised, the running buffer was 25 mM sodium tetraborate pH 9.4. The capillary was bare silica 75 μm×57 cm, with a detector at 50 cm. The capillary was conditioned before each run by washing with 0.2 M NaOH for 2 min, water for 2 min, and running buffer for 2 min. Samples were introduced by pressure injection for 4 s and the separation was performed at 22 kV. Peak integration was done using the Beckman P/ACE Station software. Kinetic parameters were calculated by linear regression from Eadie-Hofstee plots.\nThe same reactions as above were prepared for capillary electrophoresis analysis and were quenched by boiling for 6 minutes without prior acidification. Capillary electrophoresis (CE) analysis was performed as described earlier (Creuzenet et al. 2000)."}, "FlaA1 [3]": {"target": "T1, FlaA1", "test": "DMAB assay: enzymatic conversion of UDP-GlcNAc and UDP-GalNAc by FlaA1", "type": "biochemical", "conditions": "incubation with FlaA1, 37° C., 20 mM Tris pH 7, 1 mM NAD+", "protocol": "Reactions were performed with a total reaction volume of 35 μl at 37° C. in 20 mM Tris pH 7 in the presence of 1.5 mM substrate and 1 mM NAD^+. The reactions were stopped by acid hydrolysis of the UDP moiety of the substrate. For this purpose, the samples were acidified to pH 2 by addition of 7 μl of HCl 1 N, boiled for 6 min, and neutralised by addition of 7 μl of NaOH 1 N. The spectrophotometric quantification of GalNAc and GlcNAc using DMAB was performed as described by Creuzenet et al. 2000. Briefly summarized, 100 μl of 0.2 M sodium tetraborate pH 9.1 were added to 50 μl of quenched and neutralised enzymatic reactions and boiled immediately for 3 min. 40 μl of this mixture were transferred to a microtitration plate and 200 μl of DMAB reagent (1% in glacial acetic acid/HCl 99/1 v/v) were added. After incubation for 30 min at 37° C., the OD595 nm was recorded using a microplate reader. The assay was done in duplicate for each reaction tested. Standard curves were prepared using UDP-GlcNAc and UDP-GalNAc that were subjected to acid hydrolysis in the same conditions as described above."}},
  "note": "Several values for one entry are separate records, joined by “and”; a condition that tells them apart may be missing. Identical values can stand only once.",
  "data": [
    {"molecule": "Cc1cn([C@H]2C[C@H](O)[C@@H](COP(=O)(O)OP(=O)(O)OC3O[C@H](CO)[C@@H](O)[C@H](O)[C@H]3O)O2)c(=O)[nH]c1=O", "note": "(stereo partly drawn) [dTDP-D-glucose]", "values": [
      {"measurement": "catalysis by FlaA1 (substrate specificity)", "setting": "FlaA1 [1]", "value": "Absence of catalysis"}
    ]},
    {"molecule": "Nc1nc2c(ncn2[C@@H]2O[C@H](COP(=O)(O)OP(=O)(O)O[C@H]3O[C@H](CO)[C@@H](O)[C@H](O)[C@@H]3O)[C@@H](O)[C@H]2O)c(=O)[nH]1", "note": "[GDP-mannose]", "values": [
      {"measurement": "catalysis by FlaA1 (substrate specificity)", "setting": "FlaA1 [1]", "value": "Absence of catalysis"}
    ]},
    {"molecule": "CC(=O)N[C@H]1[C@@H](OP(=O)(O)OP(=O)(O)OC[C@H]2O[C@@H](n3ccc(=O)[nH]c3=O)[C@H](O)[C@@H]2O)O[C@H](CO)[C@@H](O)[C@@H]1O", "note": "[UDP-GlcNAc, UDP-N-acetylglucosamine]", "values": [
      {"measurement": "Km", "setting": "C4 epimerase WbpP", "value": 220, "unit": "µM"},
      {"measurement": "kcat", "setting": "FlaA1 [2]; pH 7, 37° C., 12.8 pmol enzyme", "value": "0.085 s⁻¹ and 0.085 ± 0.0067 s⁻¹"},
      {"measurement": "Km", "setting": "FlaA1 [2]; pH 7, 37° C., 440 ng fresh enzyme, no NAD+, 20 min", "value": 159, "unit": "µM"},
      {"measurement": "Vmax", "setting": "FlaA1 [2]; pH 7, 37° C., 440 ng fresh enzyme, no NAD+, 20 min, total substrate conversion", "value": "0.065 nmol/min and 0.065 ± 0.006 nmol/min"},
      {"measurement": "reaction products identified by capillary electrophoresis", "setting": "FlaA1 [2]", "value": "two reaction products were identified"},
      {"measurement": "substrate conversion (decrease in OD595nm, DMAB assay)", "setting": "FlaA1 [3]", "value": "≤ 55", "unit": "%"}
    ]},
    {"molecule": "CC(=O)N[C@H]1[C@@H](OP(=O)(O)OP(=O)(O)OC[C@H]2O[C@@H](n3ccc(=O)[nH]c3=O)[C@H](O)[C@@H]2O)O[C@H](CO)[C@H](O)[C@@H]1O", "note": "[UDP-GalNAc, UDP-N-acetylgalactosamine]", "values": [
      {"measurement": "catalysis by FlaA1 (substrate specificity)", "setting": "FlaA1 [1]", "value": "can not proceed to catalysis"},
      {"measurement": "reaction products identified by capillary electrophoresis", "setting": "FlaA1 [2]", "value": "no reaction products could be identified"},
      {"measurement": "substrate conversion (decrease in OD595nm, DMAB assay)", "setting": "FlaA1 [3]", "value": "< 5", "unit": "%"}
    ]}
  ]
}
